Test results from patent US20060115804A1, “Method of studying living cells” (priority 2002, published 2006).

Tested on: Primary human osteoblasts
Experiment: Formation and mineralisation of bone nodules (962 cm^-1 hydroxyapatite Raman peak) by osteoblasts cultured on 45S5 Bioglass
Assay type: cell-based
Details: culture medium supplemented with BGP; cells on 45S5 Bioglass substrates
Procedure: Primary human osteoblasts were cultured on 45S5 Bioglass® substrates in order to induce formation of new bone. The formation of new bone can be detected with high sensitivity using Raman spectroscopy with 785 nm lasers by detecting the 962 cm^−1 Raman peak of hydroxyapatite (the mineral phase of bone). […] Only peaks corresponding to intrinsic cellular components were measured.

For `O=P(O)(O)OC(CO)CO` [beta-glycerophosphate (BGP), beta-glycerophosphate], the “Hydroxyapatite Raman peak (formation of bone nodules)” value was “a strong peak corresponding to hydroxyapatite was detected”.
